Literature values as cited in US20240325353A1, “COMPOUND FOR TREATMENT OF COGNITIVE DISORDERS” (Syndesi Therapeutics SA, priority 2021, published 2024).
Where two headings read alike, the source gives them in different places.

How the values were obtained:
SV2A [1] = biological target: T1, SV2A (Mus musculus, UniProt Q9JIS5); settings: audiogenic mice; cited from earlier work
T1 construct: host or cells: brain of audiogenic mice

SV2A [2] = biological target: T2, SV2A (Homo sapiens, UniProt Q7L0J3); design: host or cells: human brain (prediction for patients); settings: cited from earlier work
Target sequence in this assay (Q7L0J3 whole entry): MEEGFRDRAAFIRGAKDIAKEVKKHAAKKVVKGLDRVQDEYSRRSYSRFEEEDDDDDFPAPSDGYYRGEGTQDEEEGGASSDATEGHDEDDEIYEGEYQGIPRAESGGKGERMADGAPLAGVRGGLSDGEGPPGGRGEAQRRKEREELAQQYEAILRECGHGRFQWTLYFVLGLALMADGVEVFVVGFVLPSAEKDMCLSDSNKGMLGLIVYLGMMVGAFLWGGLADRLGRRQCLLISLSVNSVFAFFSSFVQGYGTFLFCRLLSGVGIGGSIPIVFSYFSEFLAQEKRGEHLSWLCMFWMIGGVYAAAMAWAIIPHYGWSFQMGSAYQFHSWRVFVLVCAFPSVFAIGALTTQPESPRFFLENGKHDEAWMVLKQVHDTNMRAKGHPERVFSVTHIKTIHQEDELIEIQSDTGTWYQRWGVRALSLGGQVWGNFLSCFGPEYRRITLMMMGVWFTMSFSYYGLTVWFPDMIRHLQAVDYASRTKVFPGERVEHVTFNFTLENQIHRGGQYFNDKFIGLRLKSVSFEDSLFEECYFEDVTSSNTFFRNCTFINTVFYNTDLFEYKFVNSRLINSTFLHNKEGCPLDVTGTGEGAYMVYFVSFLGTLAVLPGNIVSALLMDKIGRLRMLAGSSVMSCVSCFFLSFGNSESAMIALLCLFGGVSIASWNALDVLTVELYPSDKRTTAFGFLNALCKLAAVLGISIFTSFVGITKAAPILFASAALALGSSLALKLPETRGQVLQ

[3] = animals and humans; cited from earlier work
[4] = in vivo; cited from earlier work
SV2A [5] = biological target: T2, SV2A; settings: cited from earlier work
Target sequence in this assay (Q7L0J3 whole entry, species assumed): as the sequence (Q7L0J3 whole entry) above

[6] = biological target: T3, synaptic vesicle glycoprotein 2A (Homo sapiens, UniProt Q7L0J3); settings: oral 100 mg for 4 days; cited from earlier work
T3 construct: from tissue; host or cells: brain of living healthy male subjects (PET)
T3 sequence (Q7L0J3 whole entry): as above

T1 sequence (Q9JIS5 whole entry): as the sequence (Q7L0J3 whole entry) above, with S62A, T71A, E144D, A154T, G440S, S482A, I572V, M634L counted along it

## CC[C@@H](C(N)=O)N1CCCC1=O [levetiracetam, (S)-(−)-alpha-ethyl-2-oxo-1-pyrrolidine acetamide]
SV2A [1]
  SV2A occupancy needed to protect against clonic seizure: ~90%
SV2A [2]; patients receiving a 1 g daily dose
  predicted SV2A occupancy at Cmin and Cmax: 80 to 93%
SV2A [2]; patients receiving a 3 g daily dose
  predicted SV2A occupancy at Cmin and Cmax: 92 to 98%
[3]
  impact on the cognitive function: no impact on the cognitive function

## CC[C@H](C(N)=O)N1CCCC1=O (single isomer, unassigned) [dextrorotatory enantiomer of levetiracetam]
[4]
  activity in epilepsy: completely lacks activity

## CCC[C@@H]1CC(=O)N([C@@H](CC)C(N)=O)C1 [brivaracetam, (2S)-2-[(4R)-2-oxo-4-propyltetrahydro-1H-pyrrol-1-yl] butanamide]
SV2A [5]
  affinity of binding to SV2A relative to levetiracetam: higher affinity than levetiracetam
[6]
  SV2A occupancy at steady state, peak: 82-87%
  SV2A occupancy at steady state, trough: 76-82%
